The assay relates to CD2F1 mice, L1210 leukemia ip, survival T/C. The assay is described as follows: NCI In Vivo Anticancer Drug Screen. Data for tumor model L1210 Leukemia (intraperitoneal) in CD2F1 (CDF1) mice. Particulars: endpoint: mean survival time, higher = longer survival. The method in brief:
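Compound-dosed mice with transplantable tumor versus matched vehicle controls; endpoint ratio T/C reported.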

Where [1] appears, read: dose: 100.0 mg/kg/injection, schedule: Q01DX009 (ip), vehicle: saline.
The mark [2] stands for this setting: dose: 200.0 mg/kg/injection, schedule: Q01DX009 (ip), vehicle: saline.
Where [3] appears, read: dose: 100.0 mg/kg/injection, schedule: Q04DX003 (ip), vehicle: saline with Tween-80.
[4] abbreviates: dose: 200.0 mg/kg/injection, schedule: Q04DX003 (ip), vehicle: saline with Tween-80.
The mark [5] stands for this setting: dose: 400.0 mg/kg/injection, schedule: Q04DX003 (ip), vehicle: saline with Tween-80.
Where [6] appears, read: dose: 100.0 mg/kg/injection, schedule: Q04DX002 (ip), vehicle: saline with Tween-80.
Setting [7] is: dose: 200.0 mg/kg/injection, schedule: Q04DX002 (ip), vehicle: saline with Tween-80.
The mark [8] stands for this setting: dose: 200.0 mg/kg/injection, schedule: Q01DX009 (ip), vehicle: saline with Tween-80.
Setting [9] is: dose: 400.0 mg/kg/injection, schedule: Q01DX009 (ip), vehicle: saline with Tween-80.
Where [10] appears, read: dose: 12.5 mg/kg/injection, schedule: Q01DX001 (ip), vehicle: saline with Tween-80.
[11] abbreviates: dose: 25.0 mg/kg/injection, schedule: Q01DX001 (ip), vehicle: saline with Tween-80.
[12] abbreviates: dose: 100.0 mg/kg/injection, schedule: Q01DX001 (ip), vehicle: saline with Tween-80.

Inconclusive results and toxic doses are left out.

With `CC1C=NNC1=O` (stereo unspecified), the T/C was 101 % of control (dose: 8.0 mg/kg/injection, schedule: Q03HX016 (ip), vehicle: saline); 96 % of control (dose: 8.0 mg/kg/injection, schedule: Q03HX024 (ip), vehicle: saline); 97 % of control (dose: 12.5 mg/kg/injection, schedule: Q01DX009 (ip), vehicle: Klucel (hydroxypropylcellulose) (HPC)); 98 % of control (dose: 16.0 mg/kg/injection, schedule: Q03HX016 (ip), vehicle: saline); 100 % of control (dose: 16.0 mg/kg/injection, schedule: Q03HX024 (ip), vehicle: saline); 110 % of control (dose: 25.0 mg/kg/injection, schedule: Q01DX009 (ip), vehicle: Klucel (hydroxypropylcellulose) (HPC)). The T/C reads like this: (dose: 32.0 mg/kg/injection, schedule: Q03HX016 (ip), vehicle: saline) 112 % of control; (dose: 32.0 mg/kg/injection, schedule: Q03HX024 (ip), vehicle: saline) 116 % of control; (dose: 50.0 mg/kg/injection, schedule: Q01DX009 (ip), vehicle: Klucel (hydroxypropylcellulose) (HPC)) 111 % of control; (dose: 64.0 mg/kg/injection, schedule: Q01DX009 (ip), vehicle: saline) 109 % of control; (dose: 64.0 mg/kg/injection, schedule: Q03HX016 (ip), vehicle: saline) 110 % of control; (dose: 64.0 mg/kg/injection, schedule: Q03HX024 (ip), vehicle: saline) 108 % of control. For the same compound, the T/C was 103 % of control (dose: 64.0 mg/kg/injection, schedule: Q04DX003 (ip), vehicle: saline); 102 % of control (dose: 64.0 mg/kg/injection, schedule: Q08DX002 (ip), vehicle: saline); 117 % of control under setting [1]; 118 % of control (dose: 128.0 mg/kg/injection, schedule: Q01DX009 (ip), vehicle: saline); 103 % of control (dose: 128.0 mg/kg/injection, schedule: Q04DX003 (ip), vehicle: saline); 101 % of control (dose: 128.0 mg/kg/injection, schedule: Q08DX002 (ip), vehicle: saline). Further, the T/C was 123 % of control under setting [2]; 110 % of control (dose: 256.0 mg/kg/injection, schedule: Q04DX003 (ip), vehicle: saline); 102 % of control (dose: 256.0 mg/kg/injection, schedule: Q08DX002 (ip), vehicle: saline); 155 % of control (dose: 400.0 mg/kg/injection, schedule: Q01DX009 (ip), vehicle: Klucel (hydroxypropylcellulose) (HPC)); 103 % of control (dose: 512.0 mg/kg/injection, schedule: Q04DX003 (ip), vehicle: saline); 106 % of control (dose: 512.0 mg/kg/injection, schedule: Q08DX002 (ip), vehicle: saline).

On to `CCN(CC)Cc1cc(Nc2ncnc3sc(C)c(C)c23)ccc1O`, for which the T/C under setting [3] is 92 % of control, the T/C under setting [4] was 88 % of control and the T/C under setting [5] was 91 % of control.

On to `O=C(NCc1ccccc1)c1ccc([N+](=O)[O-])cc1`, for which the T/C is 97 % of control (dose: 100.0 mg/kg/injection, schedule: Q04DX002 (ip), vehicle: other); 101 % of control (dose: 200.0 mg/kg/injection, schedule: Q04DX002 (ip), vehicle: other); 97 % of control (dose: 400.0 mg/kg/injection, schedule: Q04DX002 (ip), vehicle: other).

Turning to `COC(=O)CCCCC(=O)OC`, the T/C is, setting by setting: under setting [3], 96 % of control; under setting [4], 102 % of control; under setting [5], 102 % of control.

Regarding `O=C1C(Cl)=C(Nc2nc3ccccc3s2)C(=O)c2ccccc21`, the T/C is 102 % of control (dose: 25.0 mg/kg/injection, schedule: Q01DX001 (ip), vehicle: Klucel (hydroxypropylcellulose) (HPC)); 96 % of control (dose: 50.0 mg/kg/injection, schedule: Q01DX001 (ip), vehicle: Klucel (hydroxypropylcellulose) (HPC)); 98 % of control (dose: 100.0 mg/kg/injection, schedule: Q01DX001 (ip), vehicle: Klucel (hydroxypropylcellulose) (HPC)).

`CCOC(=O)C1(Cc2ccccc2)SCCCS1`: the T/C (dose: 50.0 mg/kg/injection, schedule: Q04DX002 (ip), vehicle: saline with Tween-80) was 105 % of control; the T/C under setting [6] is 105 % of control; the T/C under setting [7] was 105 % of control.

`C/C(=C\Br)CO`: the T/C reads like this: (dose: 50.0 mg/kg/injection, schedule: Q01DX009 (ip), vehicle: acetone) 100 % of control; (dose: 100.0 mg/kg/injection, schedule: Q01DX009 (ip), vehicle: acetone) 96 % of control; (dose: 200.0 mg/kg/injection, schedule: Q01DX009 (ip), vehicle: acetone) 96 % of control.

Consider `COC(=O)NCCCCl`, for which the T/C is, setting by setting: (dose: 37.5 mg/kg/injection, schedule: Q01DX007 (ip), vehicle: saline) 94 % of control; (dose: 75.0 mg/kg/injection, schedule: Q01DX007 (ip), vehicle: saline) 103 % of control; (dose: 150.0 mg/kg/injection, schedule: Q01DX007 (ip), vehicle: saline) 97 % of control; (dose: 300.0 mg/kg/injection, schedule: Q01DX007 (ip), vehicle: saline) 94 % of control; (dose: 600.0 mg/kg/injection, schedule: Q01DX007 (ip), vehicle: saline) 94 % of control.

Turning to `Cc1ccc([Si](OO[Si](c2ccccc2)(c2ccccc2)c2ccc(C)cc2)(c2ccccc2)c2ccccc2)cc1`, the T/C (dose: 100.0 mg/kg/injection, schedule: Q01DX009 (ip), vehicle: saline with Tween-80) is 98 % of control; the T/C under setting [3] was 98 % of control; the T/C under setting [8] is 93 % of control; the T/C under setting [4] was 100 % of control; the T/C under setting [9] was 95 % of control; the T/C under setting [5] is 98 % of control.

For the compound `CCOC(=O)C1CN(Cc2ccccc2)CCC1=O` (stereo unspecified), the T/C under setting [1] is 100 % of control and the T/C under setting [2] was 103 % of control.

For `CC1C(C(=O)c2ccccc2)C(c2ccccc2)OP1(c1ccccc1)(c1ccccc1)c1ccccc1` (stereo unspecified), the T/C (dose: 6.25 mg/kg/injection, schedule: Q01DX001 (ip), vehicle: saline with Tween-80) is 97 % of control; the T/C under setting [10] was 96 % of control; the T/C under setting [11] is 105 % of control.

Take `CCCCCCC(=O)[O][Hg][c]1ccccc1`: the T/C is, setting by setting: (dose: 9.38 mg/kg/injection, schedule: Q01DX001 (ip), vehicle: saline) 105 % of control; (dose: 18.75 mg/kg/injection, schedule: Q01DX001 (ip), vehicle: saline) 100 % of control; (dose: 37.5 mg/kg/injection, schedule: Q01DX001 (ip), vehicle: saline) 103 % of control.

For `CS(=O)(=O)/C(C#N)=N/O`, the T/C runs as follows: (dose: 50.0 mg/kg/injection, schedule: Q01DX001 (ip), vehicle: saline) 103 % of control; (dose: 100.0 mg/kg/injection, schedule: Q01DX001 (ip), vehicle: saline) 98 % of control; (dose: 200.0 mg/kg/injection, schedule: Q01DX001 (ip), vehicle: saline) 101 % of control.

As to `O=C1c2ccccc2C(=O)N1CCc1c[nH]c2ccccc12`, the T/C by setting is: under setting [12], 102 % of control; (dose: 200.0 mg/kg/injection, schedule: Q01DX001 (ip), vehicle: saline with Tween-80) 104 % of control; (dose: 400.0 mg/kg/injection, schedule: Q01DX001 (ip), vehicle: saline with Tween-80) 104 % of control.

For `CCOC(=O)c1c(C)c2c(n1C)CC/C(=C\N1CCOCC1)C2=O`, the T/C by setting is: under setting [6], 93 % of control; under setting [7], 93 % of control; (dose: 400.0 mg/kg/injection, schedule: Q04DX002 (ip), vehicle: saline with Tween-80) 96 % of control.

On to `CC(=O)Oc1ccc2c3c(ccc2c1)C1CCC(=O)C1(C)CC3` (stereo unspecified), for which the T/C is 97 % of control under setting [3], 92 % of control under setting [4] and 97 % of control under setting [5].

As for `CN(C)N=Nc1c(F)c(F)cc(F)c1F`, the T/C was 102 % of control (dose: 25.0 mg/kg/injection, schedule: Q01DX009 (ip), vehicle: saline with Tween-80); 107 % of control (dose: 50.0 mg/kg/injection, schedule: Q01DX009 (ip), vehicle: saline with Tween-80); 151 % of control under setting [8]; 112 % of control under setting [9].

With `COc1cc(OC)c(/C=C/c2cc3c4ccccc4ccc3[n+](C)c2)c(OC)c1`, the T/C by setting is: under setting [10], 104 % of control; under setting [11], 112 % of control; (dose: 50.0 mg/kg/injection, schedule: Q01DX001 (ip), vehicle: saline with Tween-80) 101 % of control; under setting [12], 94 % of control.

The values above are taken from PubChem BioAssay AID256 (DTP/NCI, 2004).
